Measured values: ChEMBL document CHEMBL1201862, “PubChem BioAssay data set” (2004)
The source made the active and inactive calls.

Tests used:
[1] = biological target: Eukaryotic translation initiation factor 4E (Mus musculus, UniProt P63073); experiment: eIF4E–eIF4G protein interaction inhibitors, dose response, biochemical, TR-FRET (AID 855); assay type: functional;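 further: potency for disrupting eIF4E binding to eIF4GI seen as loss of FRET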
[2] = biological target: DNA dC->dU-editing enzyme APOBEC-3A (Homo sapiens, UniProt P31941); experiment: Dose Response confirmation of small molecule APOBEC3A DNA Deaminase Inhibitors via a fluorescence-based single-stranded DNA deaminase assay. [Related pubchem assays (depositor defined):AID493011, AID493024]; assay type: functional
[3] = biological target: DNA dC->dU-editing enzyme APOBEC-3G (Homo sapiens, UniProt Q9HC16); assay type: functional;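 further: Dose-response counterscreen measuring inhibition of APOBEC3G DNA deaminase activity, run while confirming APOBEC3A inhibitors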
[4] = biological target: T1, Carboxy-terminal domain RNA polymerase II polypeptide A small phosphatase 1 (Homo sapiens, UniProt Q9GZU7); experiment: inhibitors of CTDSP1, concentration-response testing, biochemical assay, absorbance-based, actives from ultra-high-throughput screening (AID 540297); assay type: functional
T1 sequence (Q9GZU7 whole entry): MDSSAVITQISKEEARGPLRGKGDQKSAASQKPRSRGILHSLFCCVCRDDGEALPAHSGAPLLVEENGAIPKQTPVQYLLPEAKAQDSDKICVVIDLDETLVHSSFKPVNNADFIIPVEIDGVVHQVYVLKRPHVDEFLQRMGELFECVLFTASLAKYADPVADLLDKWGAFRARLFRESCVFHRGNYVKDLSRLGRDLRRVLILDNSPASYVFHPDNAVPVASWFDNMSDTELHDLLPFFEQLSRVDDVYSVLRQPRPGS

[5] = test system: HEK293; experiment: NOD1 signaling inhibitors, primary screen, cell-based, luminescence, uHTS (AID 1578); assay type: functional; conditions: Homo sapiens
[6] = test system: HEK293; experiment: cells; assay type: functional, cell-based; conditions: Homo sapiens
[7] = test system: HEK293; experiment: cells; assay type: functional, cell-based; conditions: Homo sapiens; remark: listed apart in the source
[8] = test system: HEK293; experiment: NOD2 signaling inhibitors in MDP-stimulated cells, cell-based, uHTS, luminescence (AID 2001); assay type: functional; conditions: Homo sapiens
[9] = biological target: T2, Leucine aminopeptidase (Plasmodium falciparum 3D7, UniProt Q8IL11); experiment: P. falciparum M17LAP inhibitors, primary screen, biochemical, fluorogenic H-Leu-NHMec substrate, 1536-well (AID 1619); assay type: functional
T2 sequence (Q8IL11 whole entry): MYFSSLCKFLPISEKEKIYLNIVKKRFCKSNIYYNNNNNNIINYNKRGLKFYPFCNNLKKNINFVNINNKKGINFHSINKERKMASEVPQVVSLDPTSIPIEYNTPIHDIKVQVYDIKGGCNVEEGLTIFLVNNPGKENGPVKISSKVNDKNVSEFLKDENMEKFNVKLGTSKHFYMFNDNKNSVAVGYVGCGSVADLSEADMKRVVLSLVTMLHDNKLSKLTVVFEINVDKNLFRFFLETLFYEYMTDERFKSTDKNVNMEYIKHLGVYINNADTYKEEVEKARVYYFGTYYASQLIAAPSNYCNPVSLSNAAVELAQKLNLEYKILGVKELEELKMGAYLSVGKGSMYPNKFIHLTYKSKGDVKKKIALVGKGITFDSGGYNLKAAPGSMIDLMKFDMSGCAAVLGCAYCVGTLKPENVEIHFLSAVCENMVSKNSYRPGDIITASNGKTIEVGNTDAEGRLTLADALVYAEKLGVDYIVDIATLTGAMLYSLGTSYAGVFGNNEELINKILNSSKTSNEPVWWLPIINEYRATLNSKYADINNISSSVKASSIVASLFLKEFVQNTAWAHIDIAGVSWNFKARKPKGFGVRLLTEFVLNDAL

[10] = biological target: Glyceraldehyde-3-phosphate dehydrogenase (Homo sapiens, UniProt P04406)
[11] = ZM109 Env clade C HIV-1 fusion inhibitors, dose response, HeLa effector, CEM target cells, luciferase, cherry-pick (AID 652058); assay type: functional, cell-based
[12] = inhibitors of HIV Env-driven cell fusion, dose response, cherry-pick (AID 652057); assay type: functional, cell-based
[13] = off-target signal loss in HeLa-CEM21 co-culture – HeLa F-luc CTL cells, cherry-picked, counter-screen for HIV-1 Env fusion inhibitor project, dose response (AID 652040); assay type: functional, cell-based;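 further: potency for signal decrease marking cytotoxic or nonspecific inhibition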
[14] = inhibitors of clade B AD8 Env fusion, dose response, cell-based, cherry-pick (AID 652062); assay type: functional;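 further: luciferase signal from cell-cell fusion driven by HIV-1 clade B AD8 Env; potency is for inhibitors of fusion seen as a drop in luminescence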
[15] = HepG2 cell cytotoxicity, dose response, cytotoxicity control for Shn3 inhibitor project, CellTiter-Glo, cherry-picked (AID 624134); assay type: functional, cell-based
[16] = Shn3 3'UTR reporter inhibitors, dose response, cell-based, Clone20 osteoblasts, firefly luciferase, cherry-picked (AID 624132); assay type: functional;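 further: firefly luciferase luminescence from reporter carrying the Shn3 3'UTR in osteoblasts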
[17] = control 3'UTR Renilla luciferase suppression, dose response, counter-screen for Shn3 inhibitor project, cell-based, Clone20-Shn3RL, cherry-picked (AID 624133); assay type: functional
[18] = biological target: Cytochrome P450 3A4 (Homo sapiens, UniProt P08684); conditions: Potency;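 further: confirmatory qHTS run detecting inhibitors and substrates of CYP3A4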
[19] = biological target: T3, Calpain-2 catalytic subunit (Sus scrofa, UniProt P43367); experiment: pig calpain II inhibitor potency, dose response, biochemical, fluorogenic peptide substrate (AID 1420); assay type: functional
T3 sequence (P43367 whole entry): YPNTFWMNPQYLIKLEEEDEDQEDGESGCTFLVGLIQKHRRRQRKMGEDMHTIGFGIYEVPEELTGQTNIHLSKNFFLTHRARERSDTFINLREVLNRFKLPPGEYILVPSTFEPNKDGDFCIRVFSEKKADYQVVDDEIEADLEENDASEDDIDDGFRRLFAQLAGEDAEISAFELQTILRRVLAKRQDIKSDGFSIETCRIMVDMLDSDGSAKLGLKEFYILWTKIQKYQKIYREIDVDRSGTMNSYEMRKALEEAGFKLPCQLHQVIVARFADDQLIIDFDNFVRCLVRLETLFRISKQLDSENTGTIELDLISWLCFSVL

[20] = microbe, parasite or virus in culture; assay type: functional; conditions: Mycobacterium tuberculosis
[21] = biological target: T4, Streptokinase A (Streptococcus pyogenes serotype M1, UniProt P10520); experiment: S. pyogenes streptokinase expression inhibitors, potency, dose response, plasminogen activation absorbance, OD405 (AID 1914); assay type: functional, Streptococcus pyogenes M1 GAS;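 further: secreted streptokinase activity via plasminogen activation per viability signal from cell pellet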
T4 sequence (P10520 whole entry): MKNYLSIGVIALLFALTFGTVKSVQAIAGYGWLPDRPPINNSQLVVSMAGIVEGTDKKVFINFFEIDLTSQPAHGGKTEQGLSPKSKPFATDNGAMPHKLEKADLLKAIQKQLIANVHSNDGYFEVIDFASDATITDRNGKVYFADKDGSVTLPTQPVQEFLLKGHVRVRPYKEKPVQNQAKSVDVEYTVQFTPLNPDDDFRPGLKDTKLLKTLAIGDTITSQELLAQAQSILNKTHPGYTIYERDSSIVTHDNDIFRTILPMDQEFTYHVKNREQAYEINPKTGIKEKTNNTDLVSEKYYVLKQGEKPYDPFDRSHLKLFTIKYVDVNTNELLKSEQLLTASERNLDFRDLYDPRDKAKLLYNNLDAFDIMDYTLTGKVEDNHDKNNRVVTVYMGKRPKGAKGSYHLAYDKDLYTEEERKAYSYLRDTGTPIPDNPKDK

[22] = biological target: T5, Fatty acid synthase (Homo sapiens, UniProt P49327); experiment: FAS thioesterase domain inhibitors, dose response, biochemical, kinetic fluorescence intensity (AID 624326); assay type: functional;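 further: rate of fluorescence rise from hydrolysis of a fluorogenic O-methyl fluorescein ester substrate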
[23] = biological target: T5, Fatty acid synthase; experiment: FAS thioesterase domain inhibitors, dose response, biochemical, endpoint fluorescence intensity, uHTS hits (AID 624327); assay type: functional;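 further: fluorescence from hydrolysis of an O-methyl fluorescein acyl ester substrate by the enzyme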
[24] = test system: Streptococcus sp. 'group A'; experiment: growth inhibition of control SK(-) GAS strain, dose response, counter-screen for streptokinase expression inhibitor project, luminescence, kanamycin, BacTiterGlo, confirmation (AID 1900); assay type: functional, organism-based
[25] = test system: Streptococcus; experiment: Group A Streptococcus viability loss, dose response, counter-screen for streptokinase expression inhibitor project, luminescence, BacTiterGlo (AID 1915); assay type: functional, organism-based;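 further: potency for reduction of bacterial viability or growth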
[26] = LGR2 antagonists, dose response, cell-based, HEK293, CRE-luciferase reporter, cherry pick, set 2 (AID 743343); assay type: functional;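 further: transfected cells were stimulated with diluted bursicon conditioned medium after compound addition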
[27] = HEK293 cell cytotoxicity, dose response, cytotoxicity control, plate reader, cherry-picked samples (AID 743446); assay type: functional, cell-based
[28] = MC4R antagonists, dose response, counter-screen for LGR2 antagonist project, cell-based, plate reader, cherry pick (AID 743444); assay type: functional;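 further: transfected HEK 293 cells stimulated with alpha-MSH peptide; potency of inhibitors of the alpha-MSH evoked signal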
[29] = A549 cell cytotoxicity, dose response, cytotoxicity control, plate reader, cherry-pick, antagonist series (AID 743412); assay type: functional, cell-based

Chain of Eukaryotic translation initiation factor 4E (P63073 whole entry): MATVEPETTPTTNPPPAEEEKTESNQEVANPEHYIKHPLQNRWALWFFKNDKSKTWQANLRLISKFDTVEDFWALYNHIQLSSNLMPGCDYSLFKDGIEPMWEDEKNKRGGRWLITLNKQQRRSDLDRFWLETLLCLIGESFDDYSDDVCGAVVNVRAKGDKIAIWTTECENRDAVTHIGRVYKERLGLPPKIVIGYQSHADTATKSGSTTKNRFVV
Chain of DNA dC->dU-editing enzyme APOBEC-3G (Q9HC16 whole entry, the tested form may be a part): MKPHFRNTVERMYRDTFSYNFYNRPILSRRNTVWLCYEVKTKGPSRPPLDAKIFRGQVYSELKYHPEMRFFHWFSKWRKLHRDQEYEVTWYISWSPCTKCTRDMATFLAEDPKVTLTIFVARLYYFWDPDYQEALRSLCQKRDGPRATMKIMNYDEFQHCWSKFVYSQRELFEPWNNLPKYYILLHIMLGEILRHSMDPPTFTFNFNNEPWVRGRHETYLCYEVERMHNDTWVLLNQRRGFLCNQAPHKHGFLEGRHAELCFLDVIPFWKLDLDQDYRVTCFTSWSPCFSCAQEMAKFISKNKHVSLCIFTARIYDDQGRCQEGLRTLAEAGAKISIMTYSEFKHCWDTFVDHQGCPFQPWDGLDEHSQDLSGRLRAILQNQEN
Chain of DNA dC->dU-editing enzyme APOBEC-3A (P31941 whole entry): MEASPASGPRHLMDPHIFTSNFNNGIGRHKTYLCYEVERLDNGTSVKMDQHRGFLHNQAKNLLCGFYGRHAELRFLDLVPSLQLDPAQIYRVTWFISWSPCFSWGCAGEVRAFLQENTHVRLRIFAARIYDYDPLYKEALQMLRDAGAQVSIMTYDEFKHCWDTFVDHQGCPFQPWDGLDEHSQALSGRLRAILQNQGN
Chain of Glyceraldehyde-3-phosphate dehydrogenase (P04406 whole entry, the tested form may be a part): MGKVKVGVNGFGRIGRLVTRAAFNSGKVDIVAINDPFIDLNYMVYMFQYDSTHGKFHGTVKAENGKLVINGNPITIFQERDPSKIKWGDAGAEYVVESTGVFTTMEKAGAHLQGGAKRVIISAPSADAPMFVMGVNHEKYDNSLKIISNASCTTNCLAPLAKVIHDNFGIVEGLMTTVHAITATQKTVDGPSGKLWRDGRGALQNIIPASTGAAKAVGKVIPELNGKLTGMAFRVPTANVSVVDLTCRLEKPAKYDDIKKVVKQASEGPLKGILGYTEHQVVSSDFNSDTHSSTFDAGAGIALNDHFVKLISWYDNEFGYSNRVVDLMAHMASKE
Chain of Cytochrome P450 3A4 (P08684 whole entry): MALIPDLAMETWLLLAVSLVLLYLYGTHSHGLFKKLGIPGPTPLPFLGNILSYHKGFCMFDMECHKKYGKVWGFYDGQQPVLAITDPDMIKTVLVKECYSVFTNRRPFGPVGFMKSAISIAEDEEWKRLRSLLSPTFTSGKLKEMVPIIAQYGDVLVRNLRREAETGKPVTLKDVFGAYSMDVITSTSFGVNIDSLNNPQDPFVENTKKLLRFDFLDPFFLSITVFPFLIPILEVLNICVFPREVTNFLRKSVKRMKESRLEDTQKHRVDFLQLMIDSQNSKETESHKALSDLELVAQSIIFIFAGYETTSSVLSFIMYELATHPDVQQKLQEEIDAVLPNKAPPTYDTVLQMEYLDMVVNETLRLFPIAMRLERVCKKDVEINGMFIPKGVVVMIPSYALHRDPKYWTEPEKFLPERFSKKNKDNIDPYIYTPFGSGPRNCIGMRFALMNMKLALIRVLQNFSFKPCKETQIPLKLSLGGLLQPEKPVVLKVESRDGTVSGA
T5 sequence (P49327 whole entry, the tested form may be a part): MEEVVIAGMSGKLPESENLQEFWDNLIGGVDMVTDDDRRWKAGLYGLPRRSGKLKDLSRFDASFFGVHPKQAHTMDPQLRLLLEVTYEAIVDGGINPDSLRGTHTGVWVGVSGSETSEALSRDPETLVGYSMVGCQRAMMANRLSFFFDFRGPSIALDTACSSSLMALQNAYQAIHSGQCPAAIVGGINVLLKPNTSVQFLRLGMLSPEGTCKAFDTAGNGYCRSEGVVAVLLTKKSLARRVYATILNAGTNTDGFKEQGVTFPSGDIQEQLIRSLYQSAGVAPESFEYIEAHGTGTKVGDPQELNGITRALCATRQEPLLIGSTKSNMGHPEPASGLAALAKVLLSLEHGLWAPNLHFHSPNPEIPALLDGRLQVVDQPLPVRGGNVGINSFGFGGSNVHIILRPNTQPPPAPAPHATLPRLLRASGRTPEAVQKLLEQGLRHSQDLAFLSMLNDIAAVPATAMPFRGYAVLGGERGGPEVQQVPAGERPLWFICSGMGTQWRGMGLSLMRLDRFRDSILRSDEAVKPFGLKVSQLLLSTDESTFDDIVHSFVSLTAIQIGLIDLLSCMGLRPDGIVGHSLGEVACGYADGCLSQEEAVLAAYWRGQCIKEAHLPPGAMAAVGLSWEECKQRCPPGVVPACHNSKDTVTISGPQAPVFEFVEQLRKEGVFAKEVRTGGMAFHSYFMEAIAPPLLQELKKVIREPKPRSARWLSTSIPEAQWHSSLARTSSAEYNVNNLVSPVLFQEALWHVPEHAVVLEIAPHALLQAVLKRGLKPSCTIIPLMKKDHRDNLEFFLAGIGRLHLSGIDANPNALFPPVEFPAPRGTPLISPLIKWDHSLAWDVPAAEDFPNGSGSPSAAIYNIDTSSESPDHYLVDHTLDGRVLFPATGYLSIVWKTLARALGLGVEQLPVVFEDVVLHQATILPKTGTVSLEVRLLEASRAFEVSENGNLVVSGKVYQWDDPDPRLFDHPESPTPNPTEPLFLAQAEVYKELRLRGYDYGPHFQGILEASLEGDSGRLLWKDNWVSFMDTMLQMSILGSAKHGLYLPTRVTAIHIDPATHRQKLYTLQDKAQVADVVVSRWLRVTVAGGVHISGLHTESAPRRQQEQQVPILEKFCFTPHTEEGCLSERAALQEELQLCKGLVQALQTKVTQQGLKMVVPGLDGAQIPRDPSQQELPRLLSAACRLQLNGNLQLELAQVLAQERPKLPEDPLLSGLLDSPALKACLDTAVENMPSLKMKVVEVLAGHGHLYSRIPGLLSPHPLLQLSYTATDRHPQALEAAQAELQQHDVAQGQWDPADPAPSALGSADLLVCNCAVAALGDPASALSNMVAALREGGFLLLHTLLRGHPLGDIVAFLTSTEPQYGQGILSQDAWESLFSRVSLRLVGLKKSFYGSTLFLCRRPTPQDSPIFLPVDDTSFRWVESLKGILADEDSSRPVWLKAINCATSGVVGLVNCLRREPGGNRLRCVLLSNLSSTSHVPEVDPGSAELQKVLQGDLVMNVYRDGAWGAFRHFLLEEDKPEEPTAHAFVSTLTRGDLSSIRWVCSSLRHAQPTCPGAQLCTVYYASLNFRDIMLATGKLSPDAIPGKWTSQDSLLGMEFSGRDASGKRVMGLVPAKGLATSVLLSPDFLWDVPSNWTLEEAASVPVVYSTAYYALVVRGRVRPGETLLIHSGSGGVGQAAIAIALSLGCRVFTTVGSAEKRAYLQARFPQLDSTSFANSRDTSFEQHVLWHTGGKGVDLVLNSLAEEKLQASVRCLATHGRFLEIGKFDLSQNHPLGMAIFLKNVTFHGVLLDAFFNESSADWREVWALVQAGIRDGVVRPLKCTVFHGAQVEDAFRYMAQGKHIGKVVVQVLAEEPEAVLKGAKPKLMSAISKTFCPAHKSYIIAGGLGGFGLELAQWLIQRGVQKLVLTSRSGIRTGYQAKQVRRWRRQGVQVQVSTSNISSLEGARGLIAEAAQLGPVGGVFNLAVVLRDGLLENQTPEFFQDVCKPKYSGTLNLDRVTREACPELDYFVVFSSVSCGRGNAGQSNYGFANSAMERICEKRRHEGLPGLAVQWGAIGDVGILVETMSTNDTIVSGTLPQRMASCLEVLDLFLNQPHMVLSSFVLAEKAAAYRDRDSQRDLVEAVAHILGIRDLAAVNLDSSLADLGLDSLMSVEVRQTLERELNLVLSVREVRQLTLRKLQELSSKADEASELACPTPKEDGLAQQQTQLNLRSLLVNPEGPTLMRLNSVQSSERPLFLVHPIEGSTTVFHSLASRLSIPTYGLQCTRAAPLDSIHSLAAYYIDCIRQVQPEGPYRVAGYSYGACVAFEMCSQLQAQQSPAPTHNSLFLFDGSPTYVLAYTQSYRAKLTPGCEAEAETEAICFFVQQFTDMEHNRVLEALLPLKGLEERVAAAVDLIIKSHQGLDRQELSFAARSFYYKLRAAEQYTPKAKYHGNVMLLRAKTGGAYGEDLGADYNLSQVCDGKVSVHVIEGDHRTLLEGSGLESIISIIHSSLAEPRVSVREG

CCn1cc(C(=O)OCC(=O)c2cc(C)n(-c3ccc(OC(F)F)cc3)c2C)c(=O)c2ccc(C)nc21
IC50 [1]: > 64 µM (inactive)

Cc1ccc(CCCOC(=O)C[N+]2(C)CCCCC2)cc1
IC50 [2]: 2.57 µM (active) | IC50 [3]: 2.58 µM (active)

O=[N+]([O-])c1ccc(C[n+]2cccc3ccccc32)cc1
IC50 [2]: 3.26 µM (active) | IC50 [3]: 5.45 µM (active)

COc1ccc(/C=C(\NC(=O)c2ccccc2)C(=O)OC[C@@H]2CCC[N+]3(C)CCCCC23)cc1OC (stereo partly drawn)
IC50 [2]: 2.2 µM (active) | IC50 [3]: 3.58 µM (active) | IC50 [4]: 6.62 µM (active)

CC(C)(C)NC(=O)C(=O)NN=C1CCCCCCC1
IC50 [1]: 50 µM (inactive)

CCOc1ccc(NC(=O)c2cc3ccccc3cc2O)cc1
IC50 [2]: 12.9 µM (active) | IC50 [3]: 47.5 µM (active)

CCCc1nc(SCC(=O)Nc2nnc(SCC)s2)c2c(=O)n(C)c(=O)n(C)c2n1
EC50 [5]: > 20 µM (inactive) | IC50 [6]: 7.04 µM (active) | IC50 [7]: > 20 µM (inactive) | IC50 [8]: 4.78 µM (active)

CCc1ccc(C(=O)CSc2nnc[nH]2)cc1
IC50 [9]: 16.7 µM (active) | IC50 [1]: > 64 µM (inactive)

Cc1nnc(SCC(=O)Nc2ccc(O)c(C(=O)O)c2)s1
IC50 [10]: > 100 µM (not active)

O=C1C2CC=CCC2C(=O)N1c1nc(CCc2ccccc2)n[nH]1 (stereo not drawn)
IC50 [10]: > 100 µM (not active)

COc1cc(NC2c3ccccc3C(=O)N2Cc2ccccc2)cc(OC)c1OC (stereo not drawn)
AC50 [11]: 13.1 µM (active) | AC50 [12]: 8.41 µM (active) | AC50 [13]: 9.63 µM (active) | AC50 [14]: 7.97 µM (active)

CCCOC(=O)c1[nH]c2c(c1C)C(=O)CC(c1cc(OC)c(OC)c(OC)c1)C2 (stereo not drawn)
EC50 [5]: 2.78 µM (active) | IC50 [6]: 6.21 µM (active) | AC50 [15]: 52.9 µM (active) | AC50 [16]: 1.92 µM (active) | IC50 [7]: 16.4 µM (active) | IC50 [8]: 4.9 µM (active) | AC50 [17]: 6.82 µM (active)

O=C(COC(=O)/C=C/c1ccco1)Nc1ncc(C(F)(F)F)cc1Cl
IC50 [2]: 16.9 µM (active) | IC50 [3]: 29.9 µM (active) | IC50 [4]: 4.77 µM (active)

CCCn1c(-c2ccc(F)cc2)nc2c(NCCCCN(C)C)nc(C)nc21
AC50 [18]: 25.1 µM (inconclusive)

O=C(CCc1ccc(O)cc1)c1c(O)cc(O)cc1O[C@H]1OC(CO)C(O)C(O)C1O (stereo partly drawn)
AC50 [18]: 39.8 µM (inconclusive)

O=C(O)/C=C/C(=O)Nc1ccccc1C(=O)OCC(=O)c1ccc2c(c1)OCCO2
IC50 [9]: 36.9 µM (active)

Cc1ccc(S(=O)(=O)N(CC(=O)O)Cc2ccco2)cc1
IC50 [2]: 16 µM (active) | IC50 [3]: 28.4 µM (active)

CCC1=C2CC[C@H]3C(=O)NC(=O)[C@H]3[C@H]2[C@@]2(C)/C(=N/CC3CC3)OC(=O)N2C1=O
AC50 [18]: 25.1 µM (inconclusive)

CC(C)C[C@H](NC(=O)c1[nH]cnc1C(=O)NC1CCN(C(=O)OC(C)(C)C)CC1)C(=O)OCc1ccccc1
IC50 [19]: 4.9 µM (not active) | CC50 [20]: > 40 µM (active) | EC50 [21]: > 150 µM (not active) | IC50 [22]: 6.28 µM (active) | IC50 [23]: 8.64 µM (active) | EC50 [24]: 8.37 µM (active) | EC50 [25]: 12.3 µM (active)

O=C(O)C1CC=CCC1C(=O)Nc1ccccc1Cl (stereo not drawn)
IC50 [9]: 12 µM (active)

COc1cc(NC2c3ccccc3C(=O)N2Cc2ccc3c(c2)OCO3)cc(OC)c1OC (stereo not drawn)
AC50 [11]: 5.79 µM (active) | AC50 [12]: 6.77 µM (active) | AC50 [13]: 14.7 µM (active) | AC50 [14]: 10.1 µM (active)

O=C(O)CS(=O)(=O)c1ccc2ccccc2c1
IC50 [10]: > 100 µM (not active)

Oc1nc2ccccc2n1C1CCN(C(c2ccccc2OC(F)(F)F)c2nnnn2Cc2ccccc2)CC1 (stereo not drawn)
AC50 [26]: 20.5 µM (active) | AC50 [27]: 17.6 µM (active) | AC50 [28]: 22.9 µM (active) | AC50 [29]: 18.9 µM (active)

c1ccc2c(Cc3c[nH]c4ccccc34)c[nH]c2c1 [ARUNDINE]
AC50 [18]: 39.8 µM (inconclusive)

COC(=O)CC[C@@H](C)[C@H]1CC[C@H]2[C@@H]3[C@H](O)C[C@@H]4C[C@H](O)CC[C@]4(C)[C@H]3C[C@H](O)[C@]12C [CHOLIC ACID, METHYL ESTER]
AC50 [18]: 31.6 µM (inconclusive)
